Measurements as given in PMC5537305, “Photo-enhanced Aqueous Solubilization of an Azo-compound” (Scientific Reports, 2017).
Values after ≈ are worked out from the molar mass of the structure shown. Read-outs that look alike come from different tables or passages of the source.

Tests used:
[1] = Photoinduced cis-trans isomerization of 3 in water containing 1% MeOH (HPLC peak areas); assay type: physicochemical
Procedure: To confirm the potential usefulness of this strategy for improving aqueous solubility, we focused on kinase inhibitor 3 [31] (Fig. S2) as representative of pharmaceutical compounds, because the 518 human protein kinases include important drug targets, and the molecular structures of many kinase inhibitors tend to be rather similar. […]
Table S2. Photoinduced isomerization of 3
Light Time (min) cis ratio (%) trans ratio (%)
Compound 3 (10 µM) in a mixture of water and MeOH (1%) was successively exposed to white light and to a 365 nm mercury lamp (0.5 mW/cm2). The cis-trans ratio was calculated from the peak areas in HPLC. […]
Physicochemical properties
The UV-visible absorption spectra of the cis and trans isomers were determined on a UV-visible spectrometer (Shimano, UV-2400PC). Sample solutions in quartz cells were irradiated with a 365 nm mercury lamp (4 W, UVP compact UV lamp, 0.5 mW/cm2), LED UV light (3.3 W, CCS HLV-24UV365-4WNRBTNJ, 344 mW/cm2), or white LED light (5 W, Nikki Trading Corp., NLSS05BM, 68 and 54 mW/cm2 at 450 and 540 nm, respectively) for the indicated times at room temperature. […]

[2] = Aqueous solubilization of 3 under irradiation at various wavelengths (xenon flash lamp, 96-well plate); assay type: physicochemical; details: for solubility at 1 h: phosphate buffer, 21 °C, pH 7.4, aqueous buffer, thermodynamic from solid, read-out: Aqueous solubilized 3; for solubility at 1 h / Cis ratio: 1 h
Procedure: Table S4. Aqueous solubilization and cis ratio of 3 under irradiation at various wavelengths through filters of […]
Illumination was performed with a xenon lamp using repeated cycles of irradiation and shaking (5000 flashes, then shaking for 10 sec) through filters of various bandwidths at room temperature (20-22 °C) for 1 h. The cis ratio in the aqueous solution was evaluated by HPLC immediately after filtration, based on peak area. […]
For irradiation at various UV wavelengths, 3 (about 0.1 mg) was ground and taken up in 1/15 M phosphate buffer (pH 7.4, 0.2 mL) in a well of a 96-well white plate. Illumination over a range of wavelength from 355-540 nm was performed using a plate reader EnVision equipped with a xenon flash lamp (35 W, 500 Hz), with excitation filters of appropriate bandwidths. A protocol of irradiation and shaking cycles (5000 flashes, then shaking for 10 sec) was repeated for 1 h at room temperature (20-22 °C). Then, the suspension was filtered through a Millipore Millex-LG (0.20 µm).

[3] = 10 µM in water/MeOH (1%), step 1: visible (white light) 10 min
[4] = step 2: UV 365 nm mercury lamp 0.5 mW/cm2, 10 min
[5] = step 4: UV 10 min (second UV exposure)
[6] = wavelength 380 nm, bandwidth 10 nm, room temperature
[7] = wavelength 405 nm, bandwidth 8 nm, room temperature
[8] = wavelength 450 nm, bandwidth 8 nm, room temperature
[9] = wavelength 485 nm, bandwidth 14 nm, room temperature
[10] = wavelength 535 nm, bandwidth 25 nm, room temperature
[11] = wavelength 540 nm, bandwidth 8 nm, room temperature

cis ratio [1, 3]: 20.3%
trans ratio [1, 3]: 79.7%
cis ratio [1, 4]: 84.8%
trans ratio [1, 4]: 15.2%
cis ratio ([1]; step 3: visible 12 min): 18.3%
trans ratio ([1]; step 3: visible 12 min): 81.7%
cis ratio [1, 5]: 86.9%
trans ratio [1, 5]: 13.1%
cis ratio ([1]; step 5: visible 20 min): 19.4%
trans ratio ([1]; step 5: visible 20 min): 80.6%
trans ratio at photostationary state (maximum) ([2]; irradiation at 535 nm): 93%
solubility at 1 h ([2]; wavelength 355 nm, bandwidth 40 nm, room temperature (20-22 °C)): 4.8 µg/mL (≈ 17.1 µM)
solubility at 1 h [2, 6]: 2.8 µg/mL (≈ 9.95 µM)
solubility at 1 h [2, 7]: 2.4 µg/mL (≈ 8.53 µM)
solubility at 1 h [2, 8]: 0.75 µg/mL (≈ 2.67 µM)
solubility at 1 h [2, 9]: 0.47 µg/mL (≈ 1.67 µM)
solubility at 1 h [2, 10]: 0.57 µg/mL (≈ 2.03 µM)
solubility at 1 h [2, 11]: 0.28 µg/mL (≈ 0.995 µM)
Cis ratio ([2]; wavelength 355 nm, bandwidth 40 nm, room temperature): 90%
Cis ratio [2, 6]: 90%
Cis ratio [2, 7]: 78%
Cis ratio [2, 8]: 44%
Cis ratio [2, 9]: 20%
Cis ratio [2, 10]: 7%
Cis ratio [2, 11]: 7%
Structure (SMILES): CC(C)n1nc(/N=N/c2ccccc2)c2c(N)ncnc21 [Compound 3]
